Experimental data from patent publication US20200123127A1, “REMOVAL OF SENESCENCE-ASSOCIATED MACROPHAGES” (EVERON BIOSCIENCES, INC., priority 2016, published 2020).
“Also recorded” adds a separate entry of the source. Where two headings read alike, the source gives them in different places.

Legend:
[1] = test system: human neonatal dermal fibroblasts (NDF); assay: Resazurin viability assay, senescent vs proliferating/quiescent human neonatal dermal fibroblasts; assay type: cell-based; settings: for IC50: Homo sapiens, Fibroblast, 72 h, 72 hour exposure; for Selectivity (Prolif/Sen): NDF
Experimental: FIG. 2. Compound A1.1 selectively kills senescent human neonatal dermal fibroblasts (NDF) cells in a dose- and time-dependent manner. (FIG. 2A) Normal proliferating and quiescent NDF cells, and the cells made senescent via exposure to genotoxic agents (doxorubicin, bleomycin and gamma-irradiation) were incubated with increasing concentrations of A1.1. At 72 hours post-treatment cell viability was measured via resazurin viability assay. (FIG. 2B) Compound A1.1 selectively kills senescent NDF cells in time-dependent manner discriminating between acute genotoxic stress and senescence. Acutely damaged NDF cells were irradiated with 4 Gy gamma-irradiation 24 hours before A1.1 treatment. Senescent NDF cells were treated with bleomycin or irradiated with 15 Gy and incubated for 14 days to induce senescence before treatment with A1.1. Proliferating acutely damaged and senescent NDF cell were treated with 1.875-30 μM A1.1 and viable cells were measured at 72 hours after treatment. Average and standard deviation are shown.
Normal proliferating and quiescent NDF cells, and the cells made senescent via exposure to genotoxic agents (doxorubicin, bleomycin and gamma-irradiation) were incubated with increasing concentrations of A1.1. At 72 hours post-treatment cell viability was measured via resazurin viability assay.
A1.1 selectively kills senescent human neonatal dermal fibroblasts (NDF) cells in time-dependent manner discriminating between acute genotoxic stress and senescence ([…]). Acutely damaged NDF cells were irradiated with 4 Gy gamma-irradiation 24 hours before A1.1 treatment. Senescent NDF cells were treated with bleomycin or irradiated with 15 Gy and incubated for 14 days to induce senescence before treatment with A1.1.
Cytotoxicity of A1.1 analogs against bleomycin-induced senescent human NDFs and rat dermal fibroblasts (RDFs). Activity of analogs was assessed from dose-response curves against irradiation- or bleomycin-induced senescent and proliferating cells to calculate IC50s (uM). The fold difference of proliferating versus senescent cell IC50s was used to assess the level of specific anti-senescent activity of the compounds.
For generation senescent human neonatal dermal fibroblasts (NDFs) and adult rat dermal fibroblasts (RDFs), cells are treated at ˜10 ug/ml bleomycin for 3 days (for bleomycin-induced senescence) or irradiated once at 20 Gy using a gamma irradiator (Cs source), followed by at least 7 day recovery in fresh medium for induction of senescence. Senescent and non-senescent (proliferating) cells for each cell line are plated into 384-w plate, followed by 72 hour exposure to a dose titration of compounds. Viability measurements are estimated using the resazurin viability assay. Using GraphPad Prism 5, the IC50 values are calculated from the non-linear regression of log-transformed compound concentrations versus dose-response normalized to background and non-treated controls.

[2] = test system: SAMs; assay: SAM viability (CyQuant Direct / resazurin); assay type: cell-based, mouse; settings: for SAM cell viability: 2.5 to 10 μM
Experimental: FIG. 8. Immunomodulatory regulation of p16(Ink4a) and SAβG in macrophages. Peritoneal lavage cells elicited by alginate-encapsulated SCs from p16^Ink4a/Luc mice were treated ex vivo with immunomodulatory agents for up to 72 hours. (A) mRNA expression of p16(Ink4a) and β-galactosidase (Glb1) in macrophages (relative to B2m expression) with or without LPS stimulation for 72 hours analyzed via qRT-PCR, normalized to non-treated controls. (B) Microphotograph of SAβG-stained adherence-selected macrophages with or without stimulation with LPS (1 ng/mL) for 72 hours (10× objective). (C&D) Kinetics of p16(Ink4a) promoter-dependent luciferase activity per cell with or without LPS stimulation (C) or IL-4 stimulation (D), normalized to activity from non-treated cells at time zero. Results are shown as the mean±standard deviation for at least 3 experiments. Statistical significance with respect to non-treated control at time zero is indicated. (E) Luciferase activity and (3-galactosidase activity (via 4-MUG hydrolysis) from proteose peptone-elicited lavage cells following stimulation with IL-4 (20 ng/mL) for 72 hours, normalized to non-treated controls. (F) Viability following 72 hour dose-response to JAK1/2 inhibitor Ruxolitinib in the presence or absence of IL-4 (10 ng/mL) stimulation, measured by CyQuant Direct DNA-based viability assay. Viability normalized to respective controls lacking Ruxolitinib. (G&H) Dose-response of STAT6 inhibitor AS1517499 against luciferase activity (G) and viability via CyQuant Direct assay (H) following 72 hour treatment in the presence and absence of IL-4 (10 ng/mL). Results normalized to respective controls (with or without IL-4) lacking STAT6 inhibitor. Statistical significance is calculated with respect to the difference between IL-4 stimulated and non-stimulated cells at each concentration of STAT6 inhibitor. (I) Relative luciferase activity per cell following repolarization with M1- and M2-inducing agents. Macrophages were left non-treated (NT) or treated with either LPS (1 ng/ml) or IL-4 (20 ng/ml) for 72 hours (days 1-3), as indicated. For each treatment set, samples were collected at 72 hours (no further treatment; days 4-6=x). Alternatively, cells were washed and placed in fresh medium (−), medium containing LPS (1 ng/mL) and IFN-γ (10 ng/mL), or medium containing IL-4 (20 ng/mL) and IL-13 (10 ng/mL) and incubated for an additional 72 hours prior to sample collection (as indicated for days 4-6). Luciferase activity is expressed as the percent activity per cell relative to non-treated (NT) controls after the first 72 hours.
FIG. 10. Elevated p16(Ink4a) and β-galactosidase is regulated by immunomodulatory agents in macrophages, but not in mesenchymal SCs. Primary cultures of adipose-derived mesenchymal stromal cells (AdMSC) isolated from p16^Ink4a/Luc mice were irradiated (20 Gy) and cultured for 10 days for senescence induction. Mock irradiated cells were used as a proliferating cell control. Response of senescent and proliferating AdMSCs to immunomodulatory agents were compared to that of peritoneal lavage cells elicited by our alginate bead model. A-D) Dose-response curves of LPS (top panels: […]) and Poly(I:C) (bottom panels: C&D) on p16(Ink4a) promoter-dependent luciferase activity (left panels: A&C) and beta-galactosidase activity measured via 4-MUG hydrolysis (right panels: B&D) after 72 hr treatment. […]
FIG. 13. […] SAM viability was determined using the resazurin cell viability assay (Res). […]

[3] = proliferating NDF, resazurin, read-out: IC50 NDFprolif
[4] = senescent NDF, bleomycin-induced, resazurin, read-out: IC50 NDFsen.bleo
[5] = light or radiation study, senescent NDF, irradiation-induced, resazurin, read-out: IC50 NDFsen.irr

Structure (SMILES)	IC50 [1, 3] [µM]	IC50 [1, 4] [µM]	IC50 [1, 5] [µM]	Selectivity (Prolif/Sen) ([1]; Bleomycin)	Selectivity (Prolif/Sen) ([1]; Irradiation)	effect on viability of proliferating or quiescent NDF cells ([1]; concentrations up to 10 μM, 72 hours, resazurin)	SAM cell viability ([2]; resazurin / CyQuant, listed as TA-4812)	SAM cell viability ([2]; resazurin / CyQuant, listed as TA-04812-1)	toxicity to SAMs in combination with inducers of the M1-phenotype (LPS and interferon-gamma) ([2]; resazurin)	toxicity to SAMs, OT-82 by itself ([2]; resazurin / CyQuant, 500 nM)
CCOC(=O)c1sc(SCc2ccccc2)c2c1CC(c1ccc(OC)cc1)C/C2=N\O (stereo not shown) [Example A1.1]	> 20	< 5	< 10	5.3	2.9	no significant effect				
COc1ccc(C2CC(=NO)c3c(SCc4ccccc4)sc(C(=O)NCc4cccc(F)c4)c3C2)cc1 (stereo not shown) [Example A1.6, 3-(Benzylthio)-N-(3-fluorobenzyl)-4-(hydroxyimino)-6-(4-methoxyphenyl)-4,5,6,7-tetrahydrobenzo[c]thiophene-1-carboxamide]	> 20	< 5	< 5				no effect	little to no effect		
O=C(NCCCc1cn[nH]c1)c1ccc(-c2ccncc2)c(C#Cc2ccc(F)cc2)c1 [OT-82]									toxic	low SAM toxicity; also recorded: almost non-toxic; also recorded: not toxic
